Read-outs that look alike come from different tables or passages of the source.

What all share (assay type): cell-based, human
In one test the test system is UM-UC-3 cells. As to the kind of experiment: CCK-8 anti-proliferative assay, UM-UC-3. As to conditions: co-incubated 48 h, read-out: Anti-proliferative activity (IC50 ± standard deviation) UM-UC-3. The method, boiled down: (§1)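 Cells seeded at 5,000/well, grown at 37° C, 5% CO2 to 70% confluence, then treated in triplicate with 1-30 μM compound (nine concentrations) for designated times.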
Background: Tetrazolium dyes change colour on reduction, which living cells bring about.

The test system of test [1] is immortalized ureteral epithelial cells (SV-HUC-1). The test can be described thus: CCK-8 anti-proliferative assay, normal cells SV-HUC-1. As to conditions: normal cells, co-incubated 48 h, read-out: Anti-proliferative activity (IC50 ± standard deviation) SV-HUC-1. Put shortly:
as §1

Another test deals with MCF-7 cells. The test can be described thus: CCK-8 anti-proliferative assay, MCF-7. The settings on record: co-incubated 48 h, read-out: Anti-proliferative activity (IC50 ± standard deviation) MCF-7. Put shortly:
as §1

The subject of another test is BxPC-3 cells. As to the kind of experiment: CCK-8 anti-proliferative assay, BxPC-3. The settings on record: co-incubated 48 h, read-out: Anti-proliferative activity (IC50 ± standard deviation) BxPC-3. Put shortly: (§2)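 Human tumour cells were seeded at 5,000 per well and grown to 70% confluence. They were then treated in triplicate with compound at 1–30 μM (final) for the designated time. Viability was read by CCK-8 absorbance at 450 nm after 1–4 h, and IC50 was derived from % inhibition versus control.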

In another test the test system is MG-63 cells. The test can be described thus: CCK-8 anti-proliferative assay, MG-63. The settings on record: co-incubated 48 h, read-out: Anti-proliferative activity (IC50 ± standard deviation) MG-63. The method, boiled down: as §2
Another test concerns Hep G2 cells. The test can be described thus: CCK-8 anti-proliferative assay, Hep G2. The settings on record: co-incubated 48 h, read-out: Anti-proliferative activity (IC50 ± standard deviation) Hep G2. The method, boiled down: as §2
The next test deals with SK-OV-3 cells. As to the kind of experiment: CCK-8 anti-proliferative assay, SK-OV-3. As to conditions: co-incubated 48 h, read-out: Anti-proliferative activity (IC50 ± standard deviation) SK-OV-3. Put shortly:
as §1

In test [2] the test system is embryonic lung fibroblasts (WI-38). The test can be described thus: CCK-8 anti-proliferative assay, normal cells WI-38. The settings on record: read-out: Anti-proliferative activity (IC50 ± standard deviation) WI-38. Put shortly: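 Compound was added at final concentrations of 1 to 30 μM, in triplicate, to cells at 70% confluence (5,000 per well seeded). After co-incubation, CCK-8 was added for 1–4 h depending on the cell line. Inhibition from OD450 relative to untreated cells gave IC50.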

The test system of a further test is 143B cells. The test can be described thus: CCK-8 anti-proliferative assay, 143B. The settings on record: co-incubated 48 h, read-out: Anti-proliferative activity (IC50 ± standard deviation) 143B. Put shortly:
as §2

The next test concerns 5637 cells. The test can be described thus: CCK-8 anti-proliferative assay, 5637. As to conditions: co-incubated 48 h, read-out: Anti-proliferative activity (IC50 ± standard deviation) 5637. The method, boiled down:
as §1

The subject of a further test is A549 cells. As to the kind of experiment: CCK-8 anti-proliferative assay, A549. The settings on record: co-incubated 48 h, read-out: Anti-proliferative activity (IC50 ± standard deviation) A549. The method, boiled down:
as §1

The subject of another test is T24 cells. As to the kind of experiment: CCK-8 anti-proliferative assay, T24. As to conditions: co-incubated 48 h, read-out: Anti-proliferative activity (IC50 ± standard deviation) T24. The method, boiled down:
as §2

Another test concerns HeLa cells. The test can be described thus: CCK-8 anti-proliferative assay, HeLa. The settings on record: co-incubated 48 h, read-out: Anti-proliferative activity (IC50 ± standard deviation) HeLa. The method, boiled down: as §1
A further test has as its system J82 cells. The test can be described thus: CCK-8 anti-proliferative assay, J82. The settings on record: co-incubated 48 h, read-out: Anti-proliferative activity (IC50 ± standard deviation) J82. The method, boiled down: as §1
In the next test the test system is PANC-1 cells. As to the kind of experiment: CCK-8 anti-proliferative assay, PANC-1. The settings on record: co-incubated 48 h, read-out: Anti-proliferative activity (IC50 ± standard deviation) PANC-1. The method, boiled down: as §2
Setting [3] is: Homo sapiens, SV-HUC1, Table 13.
[4] abbreviates: Homo sapiens, SK-OV-3, Table 12.
[5] abbreviates: Homo sapiens, WI-38, Table 13, co-incubated 48 h.
The mark [6] stands for this setting: Homo sapiens, WI-38, Table 9, co-incubated 48 h.

Consider `COc1cc2ncnc(NCc3cccc(NC(=O)Nc4ccccc4)c3)c2cc1OCCCCCCN1CCC(CN2CCN(c3ccccn3)CC2)CC1` [Compound 8-2a, N-(3-(((7-methoxy-6-((6-(4-((4-(pyridin-2-yl)piperazin-1-yl)methyl)piperidin-1-yl)hexyl)oxy)quinazolin-4-yl)amino)methyl)phenyl)-N′-phenylurea], for which the IC50 in the test on UM-UC-3 cells (Homo sapiens, UMUC3, Table 10) is 25.8 ± 1.81 µM; in test [1] (setting [3]), 26.4 ± 1.69 µM; in the test with MCF-7 cells (Homo sapiens, MCF7, Table 12), 26.3 ± 1.46 µM; in the test on BxPC-3 cells (Homo sapiens, BXPC-3, Table 11), above 30 µM; in the test on MG-63 cells (Homo sapiens, MG-63, Table 11) it was 17.4 ± 1.38 µM; with Hep G2 cells (Homo sapiens, HepG2, Table 12) it was 25.7 ± 1.81 µM. For the same compound, the IC50 is 22.4 ± 1.33 µM with SK-OV-3 cells (setting [4]); 17.6 ± 0.72 µM in test [2] (setting [5]); above 30 µM with 143B cells (Homo sapiens, 143B, Table 11); 16.2 ± 0.77 µM in the test on 5637 cells (Homo sapiens, Table 10); above 30 µM in the test on A549 cells (Homo sapiens, A549, Table 13); 15.8 ± 0.92 µM in the test with T24 cells (Homo sapiens, T-24, Table 10). Moreover, the IC50 in the test with HeLa cells (Homo sapiens, HeLa, Table 12) is above 30 µM; in the test on J82 cells (Homo sapiens, J82, Table 10), above 30 µM; in the test with PANC-1 cells (Homo sapiens, PANC-1, Table 11), above 30 µM.
Take `COc1cc2ncnc(NCc3cccc(NC(=O)Nc4cc(C(F)(F)F)cc(C(F)(F)F)c4)c3)c2cc1OCCCCCCN1CCC(CN2CCN(c3ccccn3)CC2)CC1` [Compound 8-2w, N-(3-(((7-methoxy-6-((6-(4-((4-(pyridin-2-yl)piperazin-1-yl)methyl)piperidin-1-yl)hexyl)oxy)quinazolin-4-yl)amino)methyl)phenyl)-N′-(3,5-bis(trifluoromethyl)phenyl)urea]: the IC50 in the test with UM-UC-3 cells (Homo sapiens, UMUC3, Table 10) worked out at 6.42 ± 0.16 µM; in [1] (setting [3]), 7.19 ± 0.68 µM; in the test with MCF-7 cells (Homo sapiens, MCF7, Table 12) it was 5.59 ± 0.46 µM; in the test on BxPC-3 cells (Homo sapiens, BXPC-3, Table 11), 15.5 ± 0.92 µM; in the test on MG-63 cells (Homo sapiens, MG-63, Table 11) it was 8.33 ± 0.81 µM; with Hep G2 cells (Homo sapiens, HepG2, Table 12) it was 5.87 ± 0.49 µM. Further, the IC50 in the test on SK-OV-3 cells (setting [4]) came out at 5.16 ± 0.27 µM; in test [2] (setting [5]), 9.49 ± 0.42 µM; in the test with 143B cells (Homo sapiens, 143B, Table 11) it was 8.04 ± 0.45 µM; in the test with 5637 cells (Homo sapiens, Table 10), 13.1 ± 0.67 µM; in the test with A549 cells (Homo sapiens, A549, Table 13) it was 9.69 ± 0.72 µM; in the test on T24 cells (Homo sapiens, T-24, Table 10), 5.92 ± 0.54 µM. For the same compound, the IC50 came out at 6.42 ± 0.56 µM in the test with HeLa cells (Homo sapiens, HeLa, Table 12); 7.84 ± 0.52 µM with J82 cells (Homo sapiens, J82, Table 10); 15.1 ± 0.66 µM in the test with PANC-1 cells (Homo sapiens, PANC-1, Table 11).
Regarding `CCc1cccc(CC)c1NC(=O)Nc1cccc(CNc2ncnc3cc(OC)c(OCCCCCCN4CCN(CCN5CCOCC5)CC4)cc23)c1` [Compound 8-1h, N-(3-(((7-methoxy-6-((6-(4-(2-morpholinoethyl)piperazin-1-yl)hexyl)oxy)quinazolin-4-yl)amino)methyl)phenyl)-N′-(2,6-diethylphenyl)urea], the IC50 with UM-UC-3 cells (Homo sapiens, UMUC3, Table 6) is 8.74 ± 0.52 µM; in test [1] (Homo sapiens, SV-HUC1, Table 9), 17.8 ± 1.59 µM; in the test with MCF-7 cells (Homo sapiens, MCF7, Table 8), 8.49 ± 0.88 µM; with BxPC-3 cells (Homo sapiens, BXPC-3, Table 7), 7.61 ± 0.76 µM; with MG-63 cells (Homo sapiens, MG-63, Table 7) it was 4.92 ± 0.46 µM; with Hep G2 cells (Homo sapiens, HepG2, Table 8), 4.67 ± 0.38 µM. For the same compound, the IC50 turned out to be 6.19 ± 0.44 µM with SK-OV-3 cells (Homo sapiens, SK-OV-3, Table 9); 23.2 ± 0.76 µM in test [2] (setting [6]); 4.46 ± 0.24 µM with 143B cells (Homo sapiens, 143B, Table 7); 5.41 ± 0.36 µM in the test on 5637 cells (Homo sapiens, Table 6); 12.3 ± 0.84 µM in the test on A549 cells (Homo sapiens, A549, Table 8); 6.89 ± 0.48 µM in the test with T24 cells (Homo sapiens, T-24, Table 6). The 50% inhibitory concentration (IC50) with HeLa cells (Homo sapiens, HeLa, Table 8) is 8.03 ± 0.62 µM; with J82 cells (Homo sapiens, J82, Table 6), 5.64 ± 0.39 µM; in the test with PANC-1 cells (Homo sapiens, PANC-1, Table 7), 9.63 ± 0.92 µM.
As for `COc1cc2ncnc(NCc3cccc(NC(=O)Nc4ccc(F)c(C(F)(F)F)c4)c3)c2cc1OCCCCCCN1CCN(CCN2CCOCC2)CC1` [Compound 8-1q], the IC50 with UM-UC-3 cells (Homo sapiens, UMUC3, Table 6) turned out to be 6.25 ± 0.88 µM; in test [1] (Homo sapiens, SV-HUC1, Table 9), 7.61 ± 0.41 µM; in the test with MCF-7 cells (Homo sapiens, MCF7, Table 8) it was 6.64 ± 0.52 µM; in the test with BxPC-3 cells (Homo sapiens, BXPC-3, Table 7), 7.78 ± 0.53 µM; in the test on MG-63 cells (Homo sapiens, MG-63, Table 7), 5.81 ± 0.63 µM; in the test on Hep G2 cells (Homo sapiens, HepG2, Table 8) it was 7.09 ± 0.35 µM. Also, the IC50 with SK-OV-3 cells (Homo sapiens, SK-OV-3, Table 9) is 8.76 ± 0.74 µM; in [2] (setting [6]) it was 7.97 ± 0.63 µM; with 143B cells (Homo sapiens, 143B, Table 7), 4.57 ± 0.44 µM; with 5637 cells (Homo sapiens, Table 6), 5.78 ± 0.69 µM; in the test on A549 cells (Homo sapiens, A549, Table 8), 10.9 ± 0.67 µM; in the test on T24 cells (Homo sapiens, T-24, Table 6), 6.83 ± 0.87 µM. For the same compound, the IC50 stood at 6.32 ± 0.37 µM in the test with HeLa cells (Homo sapiens, HeLa, Table 8); 4.26 ± 0.31 µM in the test on J82 cells (Homo sapiens, J82, Table 6); 19.5 ± 1.53 µM with PANC-1 cells (Homo sapiens, PANC-1, Table 7).
`COc1cc2ncnc(NCc3cccc(NC(=O)Nc4ccccc4)c3)c2cc1OCCCCCCN1CCN(CCN2CCOCC2)CC1` [Compound 8-1a, N-(3-(((7-methoxy-6-((6-(4-(2-morpholinoethyl)piperazin-1-yl)hexyl)oxy)quinazolin-4-yl)a-mino)methyl)phenyl)-N′-phenylurea]: the IC50 was above 30 µM with UM-UC-3 cells (Table 6); above 30 µM in test [1] (Table 9); above 30 µM in the test on MCF-7 cells (Table 8); 15.7 ± 0.78 µM in the test with BxPC-3 cells (Table 7); 27.3 ± 1.51 µM in the test with MG-63 cells (Table 7); above 30 µM with Hep G2 cells (Table 8). Moreover, the IC50 with SK-OV-3 cells (Table 9) was 28.1 ± 1.72 µM; in [2] (Table 9, co-incubated 48 h), 25.9 ± 2.74 µM; in the test with 143B cells (Table 7), 18.7 ± 1.63 µM; in the test on 5637 cells (Table 6), 26.4 ± 1.63 µM; in the test with A549 cells (Table 8), above 30 µM; in the test with T24 cells (Table 6) it was above 30 µM. The IC50 in the test on HeLa cells (Table 8), in the test on J82 cells (Table 6) and with PANC-1 cells (Table 7) was above 30 µM throughout.

A word on the IC50: it is the concentration at which inhibition is half-maximal.

(Values after patent US20260285816A1, “Piperazinyl-Modified Quinazolinyl-Aryl Urea Derivative, And Preparation Method And Use Thereof” (Guangxi Normal University, priority 2025, published 2026).)
